Test results from patent publication US10947188B2, “Small molecule ferroptosis inducers” (THE TRUSTEES OF COLUMBIA UNIVERSITY IN THE CITY OF NEW YORK, priority 2016, dated 2021).

Test system: HT-1080
Assay: Modulatory profiling: Alamar Blue viability, lethal compound cotreated with death modulator (EC50, AUC); for AUC HT.BHA: reference of the scale not given here; for AUC HT.EGTA: reference of the scale not given here
Format: cell-based
Parameters: AUC, modulator HT.3MA / AUC, modulator HT.ALLN / AUC HT.ATA / AUC HT.ActD / AUC HT.BHA / AUC HT.BHT / AUC HT.BocD / AUC HT.CHX / AUC HT.Co2+ / AUC HT.DPQ / AUC HT.EGTA / AUC HT.Lmim / AUC HT.NAD+ / AUC HT.Nec-1 / AUC HT.SP600125 / AUC HT.TLCK / AUC HT.U0126: unit not given beside the values
Settings: for AUC HT.ATA: HT-1080, modulator ATA; for AUC HT.ActD: HT-1080, modulator ActD; for AUC HT.BHA: HT-1080, modulator BHA; for AUC HT.BHT: HT-1080, modulator BHT; for AUC HT.BocD: HT-1080, modulator BocD; for AUC HT.CHX: HT-1080, modulator CHX; for AUC HT.Co2+: HT-1080, modulator Co2+; for AUC HT.CspA: HT-1080, modulator CspA; for AUC HT.DPQ: HT-1080, modulator DPQ; for AUC HT.EGTA: HT-1080, modulator EGTA; for AUC HT.Gd3+: HT-1080, modulator Gd3+; for AUC HT.LNAME: HT-1080, modulator LNAME; for AUC HT.Lmim: HT-1080, modulator Lmim; for AUC HT.NAD+: HT-1080, modulator NAD+; for AUC HT.NMMA: HT-1080, modulator NMMA; for AUC HT.Nec-1: HT-1080, modulator Nec-1; for AUC HT.Pepstatin: HT-1080, modulator Pepstatin; for AUC HT.SP600125: HT-1080, modulator SP600125; for AUC HT.TLCK: HT-1080, modulator TLCK; for AUC HT.U0126: HT-1080, modulator U0126; for HT.atoc (AUC) / HT.bCarotene (AUC) / HT.deferox (AUC) / HT.digoxin (AUC) / HT.trolox (AUC) / HT.zVAD (AUC): HT-1080; for HT.atoc (AUC): modulator atoc; for HT.bCarotene (AUC): modulator bCarotene; for HT.deferox (AUC): modulator deferox; for HT.digoxin (AUC): modulator digoxin; for HT.trolox (AUC): modulator trolox; for HT.zVAD (AUC): modulator zVAD; for AUC, modulator HT.3MA / AUC, modulator HT.ALLN: HT-1080 cells, modulatory profile value (AUC); for AUC, modulator HT.3MA: lethal compound cotreated with modulator 3MA; for AUC, modulator HT.ALLN: lethal compound cotreated with modulator ALLN

SMILES	AUC HT.ATA	AUC HT.ActD	AUC HT.BHA	AUC HT.BHT	AUC HT.BocD	AUC HT.CHX	AUC HT.Co2+	AUC HT.CspA	AUC HT.DPQ	AUC HT.EGTA	AUC HT.Gd3+	AUC HT.LNAME	AUC HT.Lmim	AUC HT.NAD+	AUC HT.NMMA	AUC HT.Nec-1	AUC HT.Pepstatin	AUC HT.SP600125	AUC HT.TLCK	AUC HT.U0126	also measured
CC(C)C[C@H](NC(=O)[C@H](Cc1ccccc1)NC(=O)c1cnccn1)B(O)O [Bortezomib]	0.0541	−0.07229	−0.04985	−0.131	0.02874	0.02631	0.06445	−0.2224	0.01079	−0.006629	−0.02823	0.009924	0.01347	0.139	0.01354	−0.06186	−8.033E−05	−0.03028	0.07195	−0.03187	HT.atoc (AUC): 0.007023; HT.bCarotene (AUC): −0.01914; HT.deferox (AUC): −0.01672; HT.digoxin (AUC): 0.07916; HT.trolox (AUC): −0.004183; HT.zVAD (AUC): 0.01074; AUC, modulator HT.3MA: −0.07171; AUC, modulator HT.ALLN: −0.08587
CC1=CC(C)(C)Nc2ccc(OC(=O)c3ccco3)cc21 [CIL2]	0.03084	−0.005228	−0.03767	−0.1327	0.1395	0.1414	−0.132	0.01224	−0.003125	−0.005627	−0.02304	0.02625	−0.03013	0.04925	−0.03029	−0.01273	0.008816	−0.003684	0.02037	0.02089	HT.atoc (AUC): 0.04757; HT.bCarotene (AUC): −0.02687; HT.deferox (AUC): 0.02963; HT.digoxin (AUC): −0.01222; HT.trolox (AUC): −0.03094; HT.zVAD (AUC): −0.02828; AUC, modulator HT.3MA: 0.07178; AUC, modulator HT.ALLN: 0.05292
CC1CC(C)(C)Nc2ccc(OC(=O)c3ccco3)cc21 (stereo not shown) [CIL4]	0.02806	−0.001463	−0.00931	−0.02212	0.1272	0.1096	−0.144	−0.04696	0.007359	0.01533	−0.009953	0.01005	−0.01928	−0.01381	−0.007501	0.002499	0.00928	−0.006297	0.0172	0.0005624	HT.atoc (AUC): 0.02362; HT.bCarotene (AUC): 0.001026; HT.deferox (AUC): −3.785E−05; HT.digoxin (AUC): −0.02389; HT.trolox (AUC): −0.0201; HT.zVAD (AUC): 0.0146; AUC, modulator HT.3MA: 0.02219; AUC, modulator HT.ALLN: 0.02482
CN(C)CC(O)Cn1c2ccc(Cl)cc2c2cc(Cl)ccc21 (stereo not shown) [CIL5]	0.0005893	−0.00753	−0.08502	−0.09917	0.01524	0.09726	0.08698	−0.02159	0.009641	−0.009215	−0.0257	0.02263	0.003574	0.03421	−0.003405	0.003351	0.01965	−0.02149	−0.004057	−0.02944	HT.atoc (AUC): 0.03603; HT.bCarotene (AUC): −0.01403; HT.deferox (AUC): −0.01025; HT.digoxin (AUC): 0.005534; HT.trolox (AUC): 0.01247; HT.zVAD (AUC): −0.01378; AUC, modulator HT.3MA: 0.0132; AUC, modulator HT.ALLN: 0.07446
OCCNCC(O)Cn1c2ccc(Br)cc2c2cc(Br)ccc21 (stereo not shown) [CIL7]	−0.01671	−0.01197	−0.06352	−0.103	0.07799	0.0511	0.1062	−0.06441	0.005254	0.006456	−0.02982	0.01998	−0.002674	0.07707	−0.02442	0.007138	−0.00124	−0.04155	−0.01113	0.01556	HT.atoc (AUC): 0.02896; HT.bCarotene (AUC): −0.0174; HT.deferox (AUC): −0.05071; HT.digoxin (AUC): 0.003869; HT.trolox (AUC): −0.006321; HT.zVAD (AUC): −0.03773; AUC, modulator HT.3MA: −0.004626; AUC, modulator HT.ALLN: 0.1136
CC(C)(C)C1CCc2c(sc(NC(=O)CN3CCNCC3)c2C(N)=O)C1 (stereo not shown) [CIL10]	0.01743	−0.01865	−0.02863	−0.08663	0.1385	0.05132	0.1226	0.004872	0.004305	−0.007776	−0.02788	0.02616	−0.02065	0.04087	−0.009286	0.03698	−0.01087	−0.009227	−0.001631	0.01126	HT.atoc (AUC): 0.1034; HT.bCarotene (AUC): −0.01201; HT.deferox (AUC): −0.004319; HT.digoxin (AUC): 0.01443; HT.trolox (AUC): −0.006674; HT.zVAD (AUC): −0.01286; AUC, modulator HT.3MA: −0.01982; AUC, modulator HT.ALLN: 0.1067
O=C1C(Cl)=C(N2CCOCC2)C(=O)C(Cl)=C1N1CCOCC1 [CIL11]	0.0148	−0.0343	−0.01902	−0.09641	0.07911	0.007052	0.05358	−0.005498	0.003904	0.004002	−0.0298	0.02954	−0.034	0.02582	−0.02554	0.01983	−0.003096	−0.02876	0.01902	0.06089	HT.atoc (AUC): 0.07926; HT.bCarotene (AUC): −0.01827; HT.deferox (AUC): 0.0278; HT.digoxin (AUC): −0.01376; HT.trolox (AUC): −0.02115; HT.zVAD (AUC): −0.002495; AUC, modulator HT.3MA: 0.0001144; AUC, modulator HT.ALLN: 0.01794
